Tested on: participants with symptomatic oHCM
Experiment: EXPLORER-HCM Phase 3 double blind, randomized, placebo controlled study
Format: in vivo, human
Text: A subset of participants consented to participate in a CMR substudy at selected sites. Randomization was stratified according to NYHA functional classification (II or III), current treatment with β-blocker (yes or no), planned type of ergometer used during the study (treadmill or exercise bicycle), and consent for the CMR substudy (yes or no).
1) Screening period (Day −35 to Day −1): Participants will undergo a variety of general, cardiopulmonary, laboratory, symptom, and PRO assessments over 1 to 2 days in order to assess eligibility. Key Screening tests include electrocardiogram (ECG); transthoracic echocardiography (TTE) conducted at rest, with Valsalva maneuver, and post-exercise; as well as cardiopulmonary exercise testing (CPET). The following screening assessments may be repeated, as long as within the 35-days screening window: blood tests, ECG, and/or TTE. Repeat assessments are allowed if central core labs require a repeat submission due to quality and in order to better assess inclusion/exclusion values. Participants who screen fail may be considered for rescreening based on the investigator's discretion, taking into consideration the reason(s) for screen fail. One attempt at rescreening will be allowed, and all procedures must be repeated.
2) Double-blind treatment period (Day 1 [randomization] to Week 30/end of treatment [EOT]): The double-blind treatment period will include a two-step dose titration scheme designed to achieve safe and effective dosing for each participant based on their own response parameters. […] Subsequently, assessments including ECG, PK (trough plasma concentrations), and TTE will be performed at each of 7 study visits, beginning at Week 4, and read by core laboratories. At Week 8 and Week 14, the dose may be increased, decreased, or remain unchanged based upon results of Week 6 and Week 12 assessments, respectively, and based primarily on measurements of provoked left ventricular outflow tract (LVOT) gradient and bounded by a target plasma concentration (PK) range and clinical tolerability (LVEF). At Week 8, the dose may be increased to a maximum daily dose of 10 mg (ie, increase from 5 mg QD to 10 mg QD), and at Week 14 to a maximum daily dose of 15 mg (ie, increase from 10 mg QD to 15 mg QD). Dose increases are designed to be step wise and are not allowed to skip doses (eg, from 5 mg to 15 mg).
At Week 30/EOT, participants will complete CPET and post-exercise TTE. For any participants permanently discontinuing treatment prior to Week 30, an early termination (ET) visit should be conducted as soon as possible, including CPET and post-exercise TTE. Participants with ET will also be encouraged to complete all remaining study visits and assessments, including the Week 30 visit.
3) Posttreatment follow-up period (Week 30/EOT to Week 38/end of study [EOS]): When double-blind treatment ends at Week 30, participants will be contacted by phone at Week 34 and return to the site at Week 38 for an EOS visit. At the EOS visit, specified assessments will be repeated. This posttreatment follow-up period applies only to participants who are receiving study drug after Week 22.
To maintain safety throughout the double-blind treatment period, a clinic visit will occur every 2 to 4 weeks, beginning at Week 4 for an initial evaluation of clinical tolerability and safety. Clinic visits will include but are not limited to clinical evaluation (symptoms, PRO evaluations, adverse event [AE]/serious adverse event [SAE] assessment), ECGs, PK sample, TTEs, and laboratory assessments. Results of TTE performed by study site sonographers at each scheduled visit following randomization should be kept blinded to the investigator and other study site personnel. An exception may occur if left ventricular ejection fraction (LVEF)≤30% is measured at the site, then the investigator will be immediately notified and study drug will be permanently discontinued as described within the protocol. […]

## CC(C)n1c(=O)cc(N[C@@H](C)c2ccccc2)[nH]c1=O [mavacamten, (S)-3-Isopropyl-6-((1-phenylethyl)amino)pyrimidine-2, 4(1H,3H)-dione]
Type 1 - pVO2 ≥1.5 ml/kg/min and NYHA improved ≥1, mavacamten group (n = 123)
  Response Type 1, n (%): 41 (33.3) n (%)
Type 2 - pVO2 ≥3.0 ml/kg/min and no worsening NYHA, mavacamten group (n = 123)
  Response Type 2, n (%): 29 (23.6) n (%)
difference, mavacamten (n = 123) vs placebo (n = 128)
  Met Composite Functional Response, either type: Mavacamten vs Placebo: 19.4%
In vivo
  participants with temporary discontinuation associated with reduced ejection fraction: 3
  patients who achieved a complete response (NYHA 1 and all LVOT gradients below 30 mmHg): 27%
  patients who achieved a post-exercise LVOT peak gradient below 30 mmHg: 57%
  subjects with severe TEAEs, %: 5.7%
Patients not receiving β blocker(s)
  Rates of improvement by at least one NYHA class: 65%
Patients not receiving β blocker(s) (n=29)
  difference vs placebo in percent of patients that met the primary endpoint: 52.6%
Patients receiving β blocker(s)
  Rates of improvement by at least one NYHA class: 65%
Patients receiving β blocker(s) (n=94)
  difference vs placebo in percent of patients that met the primary endpoint: 8.7%
Placebo 21%
  patients who achieved NYHA class I status: 65%
Through week 30
  subjects who experienced SAEs, %: 8.1%
Vs placebo
  Absence of MR (mitral regurgitation), Mava vs Placebo Difference (95% CI): 9.0 (3.7, 14.3) %
Week 30, non-β blocker subgroup
  VE/CO2 slope change from baseline: −2.5
Week 30, those not using β blocker(s)
  mean change in pVO2: 2.2 mL/kg/min
Week 30, β blocker subgroup
  VE/CO2 slope change from baseline: −2.5
  mean change in pVO2: 1.1 mL/kg/min

From patent US12616697B2, “Methods of treatment with myosin modulator” (MyoKardia, Inc., priority 2020, dated 2026)
